In article PMC10907560, “Significant reduction of activity retention in the kidneys via optimized linker sequences in radiohybrid-based minigastrin analogs” (EJNMMI Research, 2024) one finds IC50 data, which are given here for one molecule.

By IC50 is commonly meant the concentration at which inhibition is half-maximal.

The target in the assay is T1, cholecystokinin-2 receptor (CCK-2R) (Rattus norvegicus, UniProt P30553).
T1 construct: host or cells: AR42J (rat pancreatic cancer cells)
T1 sequence (P30553 1-452): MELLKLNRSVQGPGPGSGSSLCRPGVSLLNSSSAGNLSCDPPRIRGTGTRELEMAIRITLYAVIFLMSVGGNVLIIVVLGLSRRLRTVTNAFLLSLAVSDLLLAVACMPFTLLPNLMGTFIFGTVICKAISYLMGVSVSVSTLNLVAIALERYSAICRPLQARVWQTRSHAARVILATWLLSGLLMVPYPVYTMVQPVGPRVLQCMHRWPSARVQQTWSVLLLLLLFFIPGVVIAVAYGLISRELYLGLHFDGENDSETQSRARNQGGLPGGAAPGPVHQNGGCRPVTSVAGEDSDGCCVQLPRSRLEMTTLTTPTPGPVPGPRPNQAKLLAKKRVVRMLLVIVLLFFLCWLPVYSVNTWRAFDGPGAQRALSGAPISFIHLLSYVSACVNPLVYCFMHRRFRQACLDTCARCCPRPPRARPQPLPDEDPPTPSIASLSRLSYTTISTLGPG
The assay can be described thus: CCK-2R affinity (apparent IC50), competitive binding on AR42J cells. The settings on record: natLu-labeled peptide, 3 h, 37 °C, [177Lu]Lu-DOTA-PP-F11N (0.3 pmol) as radiolabeled reference. As for the experimental part: On the next day, medium was removed, cells were washed with PBS (300 µL) and fresh nutrient medium supplemented with 5% BSA (200 µL) was added. The peptide of interest (25 µL in nutrient medium) in increasing concentrations (10^−10 to 10^−4 M) in triplicate as well as [^177Lu]Lu-DOTA-PP-F11N (25 μL, 0.3 pmol) were added to the cells and the assay was incubated for 3 h at 37 °C. Subsequently, the supernatant was collected, cells were washed with PBS (300 µL) and both fractions were unified. Cell lysis was conducted by addition of NaOH (300 µL, 1 N) and incubation for at least 20 min at room temperature. The supernatant was collected, the respective wells were washed with NaOH (300 µL, 1 N) and both fractions were unified. Radioactivity of all fractions collected was quantified using a γ-counter (PerkinElmer Inc., Waltham, United States). Apparent half-maximal inhibitory concentration (IC50) was calculated via the GraphPad PRISM software (GraphPad Software Inc., La Jolla, United States).
CCK-2R positive rat pancreatic cancer cells AR42J (CLS GmbH, Eppelheim, Germany) were cultivated in monolayers in CELLSTAR® cell culture flask (Greiner Bio-One GmbH, Frickenhausen, Germany) at 37°C in a humidified atmosphere (5% CO2). Therefor, a HERAcell 150i-Incubator (Thermo Fisher Scientific Inc., Waltham, United States) was used. RPMI 1640 medium, supplemented with 5 mM L-Gln 5 mL non-essential amino acids (100×) and 10% FCS, was used for cell nutrition. Detachment of the cells for passaging was conducted with a Dulbecco’s PBS solution supplemented with 0.1% EDTA (v/v). Cell numbers were determined with a Neubauer hemocytometer (Paul Marienfeld, Lauda-Königshofen, Germany). All operations requiring sterile conditions, were accomplished using a MSC-Advantage safety workbench (Thermo Fisher Scientific Inc., Waltham, United States).
Table S1. Affinity, lipophilicity and human serum albumin binding data of the compounds evaluated. Affinity data were determined on AR42J cells (2.0 × 10^5 cells/well) and [^177Lu]Lu-DOTA-PP-F11N (0.3 pmol/well) as radiolabeled reference (3 h, 37 °C, RPMI 1640, 5 mM L-Gln, 5 mL non-essential amino acids (100×), 10% FCS + 5% BSA (v/v)).

`CCCC[C@@H](C(=O)N[C@@H](CC(=O)O)C(=O)N[C@@H](Cc1cccc2ccccc12)C(N)=O)N(C)C(=O)[C@H](Cc1c[nH]c2ccccc12)NC(=O)CCOCCOCCOCCOCCNC(=O)CC[C@@H](NC(=O)CCOCCOCCOCCOCCOCCNC(=O)CC[C@@H](NC(=O)[C@@H](CNC(=O)C[N+](C)(C)Cc1ccc([Si](F)(C(C)(C)C)C(C)(C)C)cc1)NC(=O)CN1CCN(CC(=O)O)CCN(CC(=O)O)CCN(CC(=O)O)CC1)C(=O)O)C(=O)O` [[^nat/177Lu]Lu-DOTA-rhCCK-91, DOTA-D-Dap(SiFAlin)-D-γ-Glu-(PEG)4-D-γ-Glu-(PEG)3-Trp-(N-Me)Nle-Asp-1-Nal-NH2, metal not drawn]: the IC50 is, setting by setting: (n = 3, listed as [^177/natLu]Lu-DOTA-rhCCK-91) 8.6 ± 0.7 nM; (n = 3, listed as [^natLu]Lu-DOTA-rhCCK-91) 8.56 ± 0.66 nM.
